# Reference: PubChem BioAssay AID2060491 (Molecular Pharmacology Branch, DTP, NCI, 2025)
# Values joined by “and” are separate entries in the source; they are usually repeats but may differ in a detail not shown here. Identical values can stand only once.
# System: 857933-349-R-J2-PDC complex spheroids, viability
# Experiment: Anticancer human tumor 857933-349-R-J2-PDC patient-derived colon adenocarcinoma cell line growth inhibition [GQUAD]
# Conditions: for viability, T/C: stronger effect = lower value
# Description: DNA G-quadruplex Stabilizer Agents in Combinations in Complex Spheroids
# A high-throughput screen of multi-cell type tumor spheroids was designed to identify active combinations of DNA G-quadruplex stabilizer agents and targeted small molecules. Complex spheroids include a stromal component modeled by human endothelial cells (HUVEC) and fibroblasts modeled by human mesenchymal stem cells (MSCs). The concentration ranges selected for each drug and investigational agent were based upon clinically achievable concentrations if the clinical Cmax of the agent was known.
# Compounds. The drugs and investigational agents: pidnarulex (CX-5461; NSC782164), APTO-253 (NSC789042), BRACO-19 (NSC847499), peposertib (NSC802822), ceralasertib (NSC780249), elimusertib (NSC800525), camonsertib (NSC841442), AZD-1390 (NSC803789), olaparib (NSC753686), talazoparib (NSC767125), ART-558 (NSC835418), sotorasib (NSC818433), MRTX-1133 (NSC836407), SN-38 (NSC673596), topotecan (NSC609699), etoposide (NSC141540), doxorubicin (NSC123127), gemcitabine (NSC613327), 5-fluorouracil (NSC19893), paclitaxel (NSC125973), vemurafenib (NSC761431), panobinostat (NSC761190), R-306465 (JNJ-16241199; NSC773264), adavosertib (NSC754352), TP-3654 (NSC805149), carboplatin (NSC241240), KSQ-4279 (NSC840948), and staurosporine (NSC755774) were obtained from the National Cancer Institute (NCI) Developmental Therapeutics Program Chemical Repository (34). The FDA-approved anticancer drug set is available from the NCI Developmental Therapeutics Program. […] The stock solutions were prepared in dimethyl sulfoxide (DMSO, Sigma-Aldrich, St. Louis, MO, cat. D2650) at 800-fold the tested concentration and stored at -70 degrees C prior to their use. All drugs and investigational agents were tested over a range starting from a high concentration at or near the clinical Cmax and decreasing in half-log increments. If the clinical Cmax for an agent had not been determined, the highest concentration tested was 10 microM.
# 2.3 Cell Culture. All cells were maintained in an incubator at 37 degrees C and 5% CO2 with 95% humidity. The PDC lines were cultured according to standard operating procedures established by the NCI PDMR. All PDCs were thawed and cultured in Matrigel-coated flasks prepared with a working solution of 1X Ham's F-12 nutrient mix, without supplementation (Invitrogen, cat. 11765054), 100 U/mL penicillin-streptomycin (Invitrogen, cat. 15140122), and 2.5% Matrigel (Corning Inc., cat. 354248) for the first three passages. The 857933-349-R-J2-PDC line was cultured in 6C/Colon 1B media, which includes advanced DMEM/F-12 (Thermo Fisher Scientific, cat. 12634028), 10 mM HEPES (Thermo Fisher Scientific, cat. 15630080), 1X GlutaMAX supplement (Thermo Fisher Scientific, cat. 35050061), 0.1 mg/mL primocin (InvivoGen, cat. ant-pm-2), 10% defined fetal bovine serum, heat inactivated (HyClone Laboratories Inc., cat. SH30070.03HI), 50% L-WRN conditioned media (ATCC, cat. CRL-3276), 1.25 mM N-Acetyl-L-cysteine (Sigma-Aldrich, cat. A9165), 10 mM nicotinamide (Sigma-Aldrich, cat. N0636), 1X B-27 supplement (Thermo Fisher Scientific, cat. 17504044), 1X N-2 supplement (Thermo Fisher Scientific, cat. 17502048), 10 microM Y-27632 dihydrochloride (Tocris Bioscience, cat. 1254), and 50 ng/mL human EGF recombinant protein (Thermo Fisher Scientific, cat. PHG0311). The 485176-168-R4-J1-PDC line was cultured in Panc media, which includes all 6C/Colon 1B media components plus 100 ng/mL human FGF-10 (Thermo Fisher Scientific, cat. 100-26), 500 nM SB-431542 (Selleckchem, cat. S1067), and gastrin (Tocris, cat. 3006).
# […]
# 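Further: spheroids exposed to compounds for one week before readout.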
# 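Wherever viability, T/C is given: percent viability relative to vehicle DMSO wells taken as 100%.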
smiles,measurement,setting,value
Cn1ncnc1[C@H]1c2n[nH]c(=O)c3cc(F)cc(c23)N[C@@H]1c1ccc(F)cc1 + CN(C)c1ccc(Nc2c3ccc(NC(=O)CCN4CCCC4)cc3nc3cc(NC(=O)CCN4CCCC4)ccc23)cc1,IC50,"curve of first compound, second compound 0.0316 µM",> 0.316 µM
same,IC50,"curve of first compound, second compound 0.1 µM",> 0.316 µM
same,IC50,"curve of first compound, second compound 0.316 µM",> 0.316 µM
same,IC50,"curve of first compound, second compound 1 µM",> 0.316 µM
same,IC50,"curve of first compound, second compound 3.16 µM",> 0.316 µM
same,IC50,"curve of first compound, second compound 10 µM",> 0.316 µM
same,"viability, T/C","second compound 0.0316 µM, first compound 0.000999 µM",108%
same,"viability, T/C","second compound 0.0316 µM, first compound 0.00316 µM",97.2%
same,"viability, T/C","second compound 0.0316 µM, first compound 0.00999 µM",99.4%
same,"viability, T/C","second compound 0.0316 µM, first compound 0.0316 µM",106%
same,"viability, T/C","second compound 0.0316 µM, first compound 0.0999 µM",109%
same,"viability, T/C","second compound 0.0316 µM, first compound 0.316 µM",102%
same,"viability, T/C","second compound 0.1 µM, first compound 0.000999 µM",102%
same,"viability, T/C","second compound 0.1 µM, first compound 0.00316 µM",99.9%
same,"viability, T/C","second compound 0.1 µM, first compound 0.00999 µM",98.6%
same,"viability, T/C","second compound 0.1 µM, first compound 0.0316 µM",105%
same,"viability, T/C","second compound 0.1 µM, first compound 0.0999 µM",104%
same,"viability, T/C","second compound 0.1 µM, first compound 0.316 µM",101%
same,"viability, T/C","second compound 0.316 µM, first compound 0.000999 µM",106%
same,"viability, T/C","second compound 0.316 µM, first compound 0.00316 µM",100%
same,"viability, T/C","second compound 0.316 µM, first compound 0.00999 µM",98.8%
same,"viability, T/C","second compound 0.316 µM, first compound 0.0316 µM",97.7%
same,"viability, T/C","second compound 0.316 µM, first compound 0.0999 µM",105%
same,"viability, T/C","second compound 0.316 µM, first compound 0.316 µM",99.7%
same,"viability, T/C","second compound 1 µM, first compound 0.000999 µM",102%
same,"viability, T/C","second compound 1 µM, first compound 0.00316 µM",92%
same,"viability, T/C","second compound 1 µM, first compound 0.00999 µM",96.4%
same,"viability, T/C","second compound 1 µM, first compound 0.0316 µM",96%
same,"viability, T/C","second compound 1 µM, first compound 0.0999 µM",101%
same,"viability, T/C","second compound 1 µM, first compound 0.316 µM",94.6%
same,"viability, T/C","second compound 3.16 µM, first compound 0.000999 µM",90.1%
same,"viability, T/C","second compound 3.16 µM, first compound 0.00316 µM",81.3%
same,"viability, T/C","second compound 3.16 µM, first compound 0.00999 µM",84.3%
same,"viability, T/C","second compound 3.16 µM, first compound 0.0316 µM",85.8%
same,"viability, T/C","second compound 3.16 µM, first compound 0.0999 µM",90%
same,"viability, T/C","second compound 3.16 µM, first compound 0.316 µM",86.5%
same,"viability, T/C","second compound 10 µM, first compound 0.000999 µM",71.2%
same,"viability, T/C","second compound 10 µM, first compound 0.00316 µM",77%
same,"viability, T/C","second compound 10 µM, first compound 0.00999 µM",70.8%
same,"viability, T/C","second compound 10 µM, first compound 0.0316 µM",77.5%
same,"viability, T/C","second compound 10 µM, first compound 0.0999 µM",75.4%
same,"viability, T/C","second compound 10 µM, first compound 0.316 µM",71.7%
Cc1cnc(CNC(=O)c2c(=O)c3ccc(N4CCCN(C)CC4)nc3n3c2sc2ccccc23)cn1,"viability, T/C",compound 0.0316 µM,92.5% [middle of 12 runs]
same,"viability, T/C",compound 0.1 µM,69.2% [middle of 11 runs]
same,"viability, T/C",compound 0.316 µM,26.9% [middle of 12 runs]
same,"viability, T/C",compound 1 µM,5.05% [middle of 12 runs]
same,"viability, T/C",compound 3.16 µM,2.9% [middle of 12 runs]
same,"viability, T/C",compound 10 µM,1.41% [middle of 12 runs]
same,IC50,"compound alone, run of 02/20/2024",169 nM [middle of 10 runs]
Cn1ncnc1[C@H]1c2n[nH]c(=O)c3cc(F)cc(c23)N[C@@H]1c1ccc(F)cc1,"viability, T/C",compound 0.000999 µM,102% and 99.8% and 101%
same,"viability, T/C",compound 0.00316 µM,99.8% and 104% and 94%
same,"viability, T/C",compound 0.00999 µM,99.8% and 105% and 98.9%
same,"viability, T/C",compound 0.0316 µM,94.3% and 104% and 94.9%
same,"viability, T/C",compound 0.0999 µM,97.9% and 101% and 106%
same,"viability, T/C",compound 0.316 µM,96.8% and 101% and 85.9%
same,IC50,curve of compound,> 0.316 µM
CC1COCCN1c1cc(-c2ccnn2C)c2ccnc(-c3ccn[nH]3)c2n1 (configuration not stated),"viability, T/C",compound 0.0316 µM,75.8% and 95.2% and 75.5%
same,"viability, T/C",compound 0.1 µM,52.4% and 84.3% and 52.1%
same,"viability, T/C",compound 0.316 µM,50.2% and 75.8% and 40.3%
same,"viability, T/C",compound 1 µM,46.9% and 63.2% and 44.1%
same,"viability, T/C",compound 3.16 µM,55.8% and 55.3% and 45.5%
same,"viability, T/C",compound 10 µM,51.8% and 61.9% and 43.6%
